Measurements taken from US20210315960A1, “COMPOSITIONS OF AZADIRACHTA INDICA AND METHODS OF TREATING CANCER” (Board of Regents, The University of Texas System, priority 2018, published 2021).

System: SCC4, HSC3, Cal27 OSCC cell lines
Test: MTT assay, human OSCC cell lines
Type: cell-based
Conditions: 8 h and 24 h treatments, read-out: IC50 (cell growth)
Experimental: SCC4 and Cal27 oral cancer cells are obtained from ATCC and maintained in DMEM supplemented with 10% fetal bovine serum and 1% penicillin/streptomycin at 37° C. with 5% CO2. For the SCC4 cells, hydrocortisone was provided at 400 ng/ml in the completed media. […] Doses to be tested will bracket the IC50s for each cell line. Control cells will receive DMSO. […] Subsequently, 10 μl of 12 mM MTT (Life Technologies; Carlsbad, Calif.) solution was added to each well, incubated for 4 hr at 37° C., and neutralized with DMSO. Absorbance was measured at 540 nm and percent viability was calculated.

Compound: Cc1ccc(-c2cc(C(F)(F)F)nn2-c2ccc(S(N)(=O)=O)cc2)cc1 [Celecoxib]
- IC50: 75 µM
